Experimental data taken from paper PMC5915149, “The role of oxidative stress in activity of anticancer thiosemicarbazones” (Oncotarget, 2018).
Where two headings read alike, the source gives them in different places.

Columns and labels:
HCT116 cells = experiment: Time dependent measurement of ROS level; assay type: cell-based, human; conditions: 1 µM; 3, 6, 9, 12, 24 h
Procedure: To determine the intracellular levels of ROS, HCT116 cells were seeded onto black 96-well plates (Corning) at a density of 9,000 cells/well and incubated at 37° C. After an overnight incubation, the solutions of the tested compounds: 1a-c, 2 a-b, 3 a-c, Dp44mT (1 μM) and DOX (5 μM) were added and incubated for 3, 6, 9, 12, and 24 h in a kinetic experiment. The generation of ROS was measured using a CellROX® Green Reagent (Molecular Probes™). Additionally, the quantity of cells in each well was determined using Hoechst 33342 (Molecular Probes™). The solutions of the tested compounds were removed and 100 µL of CellROX Green Reagent and Hoechst 33342 at a final concentration of 5 μM were added to each well. Then, the cells were incubated for 30 min at 37° C. The fluorescence was measured using a multi-plate reader (Synergy 4, Bio Tek) at 485 nm excitation and a 520 nm emission for CellROX Green Reagent and a 345 nm excitation laser and a 485 nm emission filter for Hoechst 33342. The experiments were performed three to four times. ROS levels were expressed as the percentage of the control cells level.

HCT116 = test system: HCT116; design: method as in PMID 25329549; conditions: 96 h incubation, MTS; cited from earlier work
MCF-7 = experiment: MTS antiproliferative assay, MCF-7 (with or without added metal ions); assay type: cell-based, human
In short: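 Cells seeded at 3,500/well, left 24 h at 37°C, then exposed to compounds for 96 h, optionally with 20 µM CuSO4, FeSO4 or FeCl3 added. Viability by MTS absorbance at 490 nm after 1 h; IC50 taken as concentration reducing proliferation to 50% of untreated control.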

cdc2 = experiment: Western blot of cdc2; assay type: cell-based, human; conditions: HCT116, 1 µM
Procedure: The HCT116 cells were seeded in 3 cm Petri dishes (Nunc) at a density of 0.5·10^6 cells/well and incubated overnight. The next day, solutions of TSC (1 μM) and DOX (5 μM) were added and the cells incubated for 24 or 48 h. Cells were harvested by trypsinization and washed with cold PBS. Next, the cells were centrifuged and suspended in an RIPA buffer (Thermo Scientific) containing Halt Protease Inhibitor Cocktail (Thermo Scientific), Halt Phosphatase Inhibitor Cocktail (Thermo Scientific) along with 0.5 M EDTA and lysed for 20 min on ice. Then, the lysates were sonicated, centrifuged at 10,000 rpm for 10 min at 4° C and the supernatants were collected for further analysis. The protein concentration was determined using a Micro BCA™ Protein Assay Kit (Thermo Scientific) according to the manufacturer’s instructions. Equal amounts of the proteins (20 μg) were electrophoresed on SDS-Page gels and transferred onto a nitrocellulose membranes. The membranes were blocked in 5% non-fat milk prepared in PBS containing 0.1% Tween-20 (TPBS) for 1 h. After blocking, the membranes were incubated with specific primary antibodies: cdc2 (#POH1, Cell Signaling), p21^Waf1/Cip1 (#12D1, Cell Signaling), p53 (#1C12, Cell Signaling) and β-Actin (#8H10D10, Cell Signaling) overnight at 4° C, then washed and incubated with horseradish peroxidase (HRP)-conjugated secondary antibodies for 1h at room temperature. All of antibodies were diluted 1:1000 in 5% milk in TPBS. Finally, the membranes were washed and incubated with a SuperSignal™ West Pico Chemiluminescent Substrate (Thermo Scientific). The chemiluminescence signals were captured using a ChemiDoc™ XRS+ System (BioRad). The experiments were performed at least three times. Densitometric analysis was performed using ImageJ 1.41 software (Wayne Rasband, National Institutes of Health, USA).

Ndrg1 = experiment: mRNA expression (Real-Time PCR) of Ndrg1; assay type: cell-based, human; conditions: HCT116, TSC 1 µM, 12 h
Procedure: The HCT116 cells were seeded in 3 cm Petri dishes (Nunc) at a density of 0.5·10^6 cells/well and incubated overnight. Next, the medium was removed and solutions of TSC (1 μM) and DOX (5 μM) were added. After 12 or 24 h, total RNA was isolated from the cells using TRIzol Reagent (Ambion) according to the manufacturer’s instructions. cDNA synthesis was performed with 5 μg of total RNA using a GoScript™ Reverse Transcriptase kit (Promega) and Oligo(dT)23 Primers (Sigma). The Real-Time PCR was performed with a CTX96 Touch™ Real-Time PCR Detection System (Biorad) in a 20 μL reaction volume. The reaction consisted of PowerUp™ SYBR® Green Master Mix (Applied Biosystems), a primer pair mix (0.5 μM each) and 1 μL of cDNA. All primer pair sequences were purchased from Sigma-Aldrich and are listed in Supplementary Table 2. The experiment was performed under the following conditions: initial denaturation at 95° C for 120 sec; followed by 40 denaturation cycles at 95° C, 15 sec; annealing (primer-specific temperature for 30 sec) and extension at 72° C for 60 sec. Data was analyzed based on a comparison of the expression of the target genes to a reference gene – β-actin, using the 2^–ΔΔCT method. The experiments were performed at least three times.

**Q.** With `S=C(NN=C(c1ccccn1)c1ccccn1)N1CCN(c2ccccc2)CC1` [Compound 3a] as the molecule, how does the “level of ROS, normalized to untreated cells” value (HCT116 cells) read?
**A.** strongest effect

**Q.** And the IC50 (HCT116)?
**A.** 0.81 ± 0.13 nM

**Q.** And the IC50 (MCF-7; 96 h, 20 µM CuSO4 added, read-out: Activity - IC50 MCF-7+ Cu^2+)?
**A.** 1.55 ± 0.55 nM

**Q.** What about the IC50 (MCF-7; 96 h, 20 µM FeCl3 added, read-out: Activity - IC50 MCF-7+ Fe^3+) of the same molecule?
**A.** 8.96 ± 1.81 nM

**Q.** And the IC50 (MCF-7; 96 h incubation, MTS, read-out: Activity - IC50 MCF-7)?
**A.** 12 ± 2.04 nM

**Q.** And the “improvement in cytotoxicity after interacting with Cu^2+” value (MCF-7; MCF-7 cells, 20 µM CuSO4)?
**A.** eight-fold

**Q.** What about the “expression of cdc2 protein (densitometric analysis)” value (cdc2) of the same molecule?
**A.** increased the expression

**Q.** And the “mRNA expression of Ndrg1” value (Ndrg1)?
**A.** significant increase
